SMILES strings stand for the structures.

Assay [1] has as its target T1, hFASN enzyme (full length) (Homo sapiens, UniProt P49327).
T1 construct: 10 μL hFASN enzyme (full length, 300 ng, purified in house); made in house
Nature of the assay: Fatty Acid Synthase (FASN) inhibition scintillation proximity assay. It counts as biochemical. The note with it: for inhibition at 10 µM: read-out: Human FASN % inhibition @ 10 μM, 10 μM test compound; for IC50: read-out: Human FASN pIC50 (converted). A digest of the protocol: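 Read-out relies on hydrophobic ³H-palmitate product, formed from ³H-acetyl-CoA and malonyl-CoA, binding streptavidin imaging beads, measured at 610±20 nm after at least 24 h. Full-length enzyme (300 ng) in phosphate buffer pH 7.5 with DTT; eight compound concentrations, 0.01–30 μM.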

Assay [2] deals with A2780 ovarian cells. The assay is described as follows: A2780 ovarian cell proliferation assay in lipid reduced medium, with palmitate (MTT). It counts as cell-based. The note with it: Homo sapiens, A2780, 96 h; read-out: pIC50 A2780 Ovarian Cell, With Palmitate (converted). A digest of the protocol:
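In this palmitate-supplemented format, compound dilutions (30 μM down to 0.01 μM) are added to cells in lipid-reduced serum with 25 μM palmitate, 0.2% fatty-acid-free BSA and 0.25% ethanol. After four days (96 h) MTT absorbance at 544 nm is recorded and fitted by minimum sum of squares.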

Assay [3] deals with A2780 ovarian cells. Nature of the assay: A2780 ovarian cell proliferation assay in lipid reduced medium, without palmitate (MTT). It is filed as cell-based. The note with it: Homo sapiens, A2780, 96 h; read-out: pIC50 A2780 Ovarian Cell, Without Palmitate (converted).
In assay [4] the test system is LNCaP-Vancouver prostate cells. Nature of the assay: In vitro LNCaP Vancouver prostate cell proliferation assay in lipid reduced medium. The conditions noted are these: read-out: pIC50 LNCaP_Vancouver prostate cell (converted). It counts as cell-based.
Assay [5] relates to PC-3M-Luc-C6 prostate cells. Nature of the assay: In vitro PC-3M-Luc-C6 prostate cell proliferation assay in lipid reduced medium. It counts as cell-based. The note with it: 96 h, read-out: pIC50 PC-3M-Luc-C6 prostate cell (converted).
Assay [6] concerns the target Fatty Acid Synthase Keto-reductase Domain (FASN KR) (Homo sapiens, UniProt P49327). Nature of the assay: Fatty Acid Synthase keto-reductase domain (FASN KR) inhibition, NADPH oxidation at 340 nm.
Protocol: After 20 minutes incubation at room temperature the plate was measured again (T2).
The decrease in absorbance was calculated as (Absorbance before incubation T1)−(Absorbance following incubation T2).
A plot of Controlmin versus test compound concentration was fitted to a 4-parameter logistic curve using a non-linear least squares regression method.

Fatty Acid Synthase Keto-reductase Domain (FASN KR), sequence (P49327 whole entry, the tested form may be a part): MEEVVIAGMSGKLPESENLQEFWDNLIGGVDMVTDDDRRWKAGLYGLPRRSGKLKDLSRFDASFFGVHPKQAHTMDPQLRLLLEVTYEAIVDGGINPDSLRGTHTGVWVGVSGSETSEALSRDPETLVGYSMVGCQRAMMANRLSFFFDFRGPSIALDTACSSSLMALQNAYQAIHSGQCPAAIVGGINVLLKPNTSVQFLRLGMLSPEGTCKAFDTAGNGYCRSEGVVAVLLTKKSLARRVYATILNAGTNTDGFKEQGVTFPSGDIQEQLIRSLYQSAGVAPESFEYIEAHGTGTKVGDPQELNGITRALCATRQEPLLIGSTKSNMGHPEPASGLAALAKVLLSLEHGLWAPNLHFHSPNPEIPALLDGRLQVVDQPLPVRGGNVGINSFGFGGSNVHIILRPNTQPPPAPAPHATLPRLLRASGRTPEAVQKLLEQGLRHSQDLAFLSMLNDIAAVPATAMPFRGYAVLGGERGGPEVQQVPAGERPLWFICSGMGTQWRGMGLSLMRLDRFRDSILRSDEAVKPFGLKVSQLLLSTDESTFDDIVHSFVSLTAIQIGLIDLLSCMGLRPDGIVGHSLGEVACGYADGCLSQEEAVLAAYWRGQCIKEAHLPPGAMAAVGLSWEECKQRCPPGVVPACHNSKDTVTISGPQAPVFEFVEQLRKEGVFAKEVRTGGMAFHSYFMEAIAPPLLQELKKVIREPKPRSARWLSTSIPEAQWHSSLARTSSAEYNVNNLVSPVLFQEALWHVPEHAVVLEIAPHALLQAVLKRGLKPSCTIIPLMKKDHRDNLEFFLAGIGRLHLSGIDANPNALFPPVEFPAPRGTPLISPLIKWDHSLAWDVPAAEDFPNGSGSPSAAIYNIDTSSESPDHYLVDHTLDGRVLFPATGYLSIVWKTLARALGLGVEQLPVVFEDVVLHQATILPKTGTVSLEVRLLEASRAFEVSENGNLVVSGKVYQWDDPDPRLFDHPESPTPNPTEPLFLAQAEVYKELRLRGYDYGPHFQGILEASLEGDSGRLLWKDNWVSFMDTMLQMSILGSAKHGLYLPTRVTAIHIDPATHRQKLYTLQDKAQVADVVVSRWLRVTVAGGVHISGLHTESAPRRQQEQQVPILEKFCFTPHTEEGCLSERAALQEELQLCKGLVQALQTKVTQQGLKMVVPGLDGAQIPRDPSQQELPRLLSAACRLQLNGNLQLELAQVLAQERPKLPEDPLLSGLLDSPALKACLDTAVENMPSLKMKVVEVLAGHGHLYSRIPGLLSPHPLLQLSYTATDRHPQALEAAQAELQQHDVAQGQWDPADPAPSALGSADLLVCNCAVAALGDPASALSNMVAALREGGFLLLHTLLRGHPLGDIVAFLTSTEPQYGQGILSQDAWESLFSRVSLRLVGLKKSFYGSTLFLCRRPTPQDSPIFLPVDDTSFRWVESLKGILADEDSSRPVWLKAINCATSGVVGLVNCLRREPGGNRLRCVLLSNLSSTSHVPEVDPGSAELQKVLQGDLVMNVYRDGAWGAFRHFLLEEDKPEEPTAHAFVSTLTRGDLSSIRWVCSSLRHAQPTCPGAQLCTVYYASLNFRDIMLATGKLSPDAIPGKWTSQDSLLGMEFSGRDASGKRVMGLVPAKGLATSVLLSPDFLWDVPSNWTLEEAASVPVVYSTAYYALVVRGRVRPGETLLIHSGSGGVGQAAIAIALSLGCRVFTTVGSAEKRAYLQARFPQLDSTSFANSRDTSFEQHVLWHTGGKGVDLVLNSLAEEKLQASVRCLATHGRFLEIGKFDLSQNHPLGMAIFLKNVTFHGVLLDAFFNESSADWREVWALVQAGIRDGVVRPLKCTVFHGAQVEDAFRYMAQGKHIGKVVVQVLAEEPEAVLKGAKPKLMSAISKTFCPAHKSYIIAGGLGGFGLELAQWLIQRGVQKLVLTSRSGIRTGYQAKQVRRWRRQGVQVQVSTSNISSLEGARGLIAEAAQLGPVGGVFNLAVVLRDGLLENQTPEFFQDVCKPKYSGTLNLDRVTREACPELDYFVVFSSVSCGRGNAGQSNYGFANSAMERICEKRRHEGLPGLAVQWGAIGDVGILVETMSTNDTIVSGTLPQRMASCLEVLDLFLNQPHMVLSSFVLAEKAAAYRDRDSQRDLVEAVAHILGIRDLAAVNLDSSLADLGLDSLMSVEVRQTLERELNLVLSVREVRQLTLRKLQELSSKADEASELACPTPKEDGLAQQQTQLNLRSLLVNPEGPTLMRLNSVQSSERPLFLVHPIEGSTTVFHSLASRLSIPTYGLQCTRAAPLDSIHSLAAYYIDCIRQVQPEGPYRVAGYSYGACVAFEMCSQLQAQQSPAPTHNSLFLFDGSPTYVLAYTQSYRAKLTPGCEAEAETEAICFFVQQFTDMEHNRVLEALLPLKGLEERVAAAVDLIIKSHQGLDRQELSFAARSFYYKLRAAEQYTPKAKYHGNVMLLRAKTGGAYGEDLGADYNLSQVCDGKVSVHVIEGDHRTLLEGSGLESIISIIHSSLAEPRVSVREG
T1 sequence (P49327 whole entry): as the sequence (P49327 whole entry, the tested form may be a part) above

A word on the inhibition: it is how much of the control response was suppressed. As for `Cn1cc(-c2ccc(-c3ccc(C4=NC5(CCOC5)C(=O)N4C[C@@H]4CCN(C(=O)[C@H]5CCCO5)C4)cc3)cc2)cn1` (stereo partly drawn) [compound 678, 2-[4′-(1-Methyl-1H-pyrazol-4-yl)biphenyl-4-yl]-3-({(3R)-1-[(2R)-tetrahydro-furan-2-ylcarbonyl]pyrrolidin-3-yl}methyl)-7-oxa-1,3-diazaspiro[4.4]non-1-en-4-one], the inhibition at 10 µM in assay [1] was determined as 95%. Besides, the IC50 is 372 nM in assay [1]; greater than 10000 nM in assay [2]; 676 nM in assay [3]; 3310 nM in assay [4]; 891 nM in assay [5]; 832 nM in assay [6].

On to `CC(O)C(=O)N1CC[C@@H](CN2C(=O)C3(CCOC3)N=C2c2ccc(-c3ccc4cccnc4c3)cc2)C1` (stereo partly drawn) [compound 681, 3-{[(3R)-1-(2-Hydroxypropanoyl)pyrrolidin-3-yl]methyl}-2-(4-quinolin-7-ylphenyl)-7-oxa-1,3-diazaspiro[4.4]non-1-en-4-one], for which, in assay [1], the inhibition at 10 µM is 91%. The IC50 in assay [1] is 295 nM; in assay [2] it was greater than 10000 nM; in assay [3], 794 nM; in assay [4] it was 4900 nM; in assay [5] it was 1380 nM; in assay [6], 1380 nM.

Consider `O=C([C@H]1CCCO1)N1CC[C@@H](CN2C(=O)C3(CCOC3)N=C2c2ccc(-c3ccc4cccnc4c3)cc2)C1` (stereo partly drawn) [compound 682, 2-(4-Quinolin-7-ylphenyl)-3-({(3R)-1-[(2R)-tetrahydro-furan-2-ylcarbonyl]pyrrolidin-3-yl}methyl)-7-oxa-1,3-diazaspiro[4.4]non-1-en-4-one], for which the inhibition at 10 µM in assay [1] came to 96%. The IC50 in assay [1] is 115 nM; in assay [2], greater than 10000 nM; in assay [3] it was 117 nM; in assay [4] it was 1000 nM; in assay [5] it was 219 nM; in assay [6], 182 nM.

`O=C(N1CCCC1)N1CC[C@@H](CN2C(=O)C3(CCOC3)N=C2c2ccc(-c3ccc4cccnc4c3)cc2)C1` (stereo partly drawn) [compound 685, 3-{[(3S)-1-(Pyrrolidin-1-ylcarbonyl)pyrrolidin-3-yl]methyl}-2-(4-quinolin-7-ylphenyl)-7-oxa-1,3-diazaspiro[4.4]non-1-en-4-one]: the inhibition at 10 µM in assay [1] was 84%. The IC50 was 851 nM in assay [1]; greater than 10000 nM in assay [2]; 1230 nM in assay [3]; 3020 nM in assay [4]; 1170 nM in assay [5]; 1620 nM in assay [6].

As for `O=C(C1CC1)N1CC(CN2C(=O)C3(CCOCC3)N=C2c2ccc(-c3ccc4cccnc4c3)cc2)C1` [compound 698, 3-{[1-(Cyclopropylcarbonyl)azetidin-3-yl]methyl}-2-(4-quinolin-7-ylphenyl)-8-oxa-1,3-diazaspiro[4.5]dec-1-en-4-one], the inhibition at 10 µM in assay [1] worked out at 92%. Moreover, the IC50 in assay [1] is 251 nM; in assay [2], greater than 10000 nM; in assay [3] it was 380 nM; in assay [4], 2630 nM; in assay [5], 575 nM; in assay [6], 457 nM.

For `O=C([C@H]1CCCO1)N1CC(CN2C(=O)C3(CCOCC3)N=C2c2ccc(-c3ccc4cccnc4c3)cc2)C1` [compound 700, 2-(4-Quinolin-7-ylphenyl)-3-({1-[(2R)-tetrahydro-furan-2-ylcarbonyl]azetidin-3-yl}methyl)-8-oxa-1,3-diazaspiro[4.5]dec-1-en-4-one], the inhibition at 10 µM in assay [1] came out at 94%. Besides, the IC50 was 240 nM in assay [1]; greater than 10000 nM in assay [2]; 468 nM in assay [3]; 3390 nM in assay [4]; 1000 nM in assay [5]; 832 nM in assay [6].

(Values after patent US10077261B2, “Imidazolin-5-one derivative useful as FASN inhibitors for the treatment of cancer” (Janssen Pharmaceutica NV, priority 2012, dated 2018).)
